One molecule from publication PMC5587574, “Carbonyl reductase 1 catalyzes 20β-reduction of glucocorticoids, modulating receptor activation and metabolic complications of obesity” (Scientific Reports, 2017) can be followed below.

For this assay, the target named is T1, Carbonyl reductase 1 (CBR1) (Homo sapiens, UniProt P16152).
T1 construct: recombinant human CBR1
T1 sequence (P16152 2-277): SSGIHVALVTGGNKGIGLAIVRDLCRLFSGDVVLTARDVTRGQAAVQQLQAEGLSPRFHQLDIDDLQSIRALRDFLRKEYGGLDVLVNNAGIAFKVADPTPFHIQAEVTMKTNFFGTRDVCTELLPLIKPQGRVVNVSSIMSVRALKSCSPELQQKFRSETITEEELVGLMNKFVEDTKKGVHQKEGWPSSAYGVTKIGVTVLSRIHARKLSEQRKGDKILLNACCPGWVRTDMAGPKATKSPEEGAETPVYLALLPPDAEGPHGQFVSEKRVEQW
Nature of the assay: conversion by recombinant enzyme, LC-MS/MS. It is filed as biochemical.

The structures appear in SMILES notation.

For the molecule `C[C@]12CCC(=O)C=C1CC[C@@H]1[C@@H]2[C@@H](O)C[C@@]2(C)[C@H]1CC[C@]2(O)C(=O)CO` [F, cortisol], the “conversion by recombinant enzyme, LC-MS/MS” value is 1.2 ± 0.4 ng/mg CBR1 protein per minute.
